The record followed here is patent US9006252B2, “Fused multicyclic compounds as protein kinase inhibitors” (National Health Research Institutes, priority 2008, dated 2015).

The term IC50 denotes the midpoint of a concentration-inhibition curve.

The test system of assay [1] is HCT-116 colon tumor xenograft. Briefly: In vivo anticancer efficacy in colon tumor xenograft mice (injected with HCT-116). Also noted: species or system nude mice. Conditions: for tumor size as % of that in the vehicle control group: 22nd day post treatment. Here is the method:
In vivo anticancer efficacy of the compounds of this invention was assessed using colon tumor xenograft mice (injected with HCT-116), as described in Cancer Research 2004, 64, 4621-4628.
(§1) HCT-116 cells were injected via s.c. in nude mice to form colon tumor xenograft mice. Mice bearing tumors with a size of ˜100 mm^3 were randomly assigned to three groups: a vehicle control group (10 mice), a positive control group (10 mice), and a treatment group (21 mice). Of the treated mice, ten received Compound 3 at a daily dosage of 25 mg/kg via IV injection through the tail veins for 5 days/week for 2 consecutive weeks (days 1-5 and 8-12) and eleven received the same compound at a daily dosage of 50 mg/kg via IV injection through the tail veins for 5 consecutive days (days 1-5). The positive control mice received VX-680 (a known anti-cancer drug) at a daily dosage of 50 mg/kg, also via IV injection through the tail veins for 5 days/week for 2 consecutive weeks (days 1-5 and 8-12).
as §1, with “Compound 4” for “Compound 3”, “of 5 mg/kg and eleven received the same compound at a daily dosage of 15” for “of 25”, “and 8-12).” for “and 8-12) and eleven received the same compound at a daily dosage of 50 mg/kg via IV injection through the tail veins for 5 consecutive days (days 1-5).”, “VX-680” for “VX-680 (a known anti-cancer drug)”

The target of the next assay is T1, Aurora A (Homo sapiens, UniProt O14965).
T1 construct: GST-tAurora A (123-401aa) fusion protein obtained above; made in house; host or cells: Sf9 insect cells (baculovirus, pBacPAK8)
T1 sequence (O14965 123-401): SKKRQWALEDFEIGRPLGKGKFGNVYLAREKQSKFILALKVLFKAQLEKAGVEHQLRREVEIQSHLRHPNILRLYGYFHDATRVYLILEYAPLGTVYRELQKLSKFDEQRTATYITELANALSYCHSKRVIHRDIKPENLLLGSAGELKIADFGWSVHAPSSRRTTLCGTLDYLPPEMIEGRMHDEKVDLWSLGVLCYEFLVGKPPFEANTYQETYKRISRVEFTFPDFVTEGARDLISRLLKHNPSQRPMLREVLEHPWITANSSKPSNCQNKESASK
Briefly: Aurora Kinase A luminescent kinase assay (Kinase-Glo). Type of assay: biochemical. The conditions noted are these: IC50 values (concentration of a test compound at which activity of 50% of Aurora A is inhibited), GST-tAurora A (123-401aa) fusion protein. As for the experimental part:
The Aurora A catalytic domain with an N-terminal GST tag was constructed in pBacPAK8 plasmid and expressed in sf9 cells. […] To concentrate GST-tAurora A, buffer was replaced with Tris buffer (100 mM Tris (pH 7.5), 300 mM NaCl, 1 mM EDTA, 4 mM DTT) using Amicon ultra-15 (MWCO:30K, Millipore) to 2.4 mg/ml. After the addition of equal volume of glycerol and 0.04% Triton X-100, the proteins were stored aliquoted at −80° C.
Briefly, a test compound, enzyme, substrate-tetra(LRRWSLG), DTT and ATP were dissolved in Aur buffer (50 mM Tris-HCl pH 7.4, 10 mM NaCl, 10 mM MgCl2, and 100 μg/ml BSA) individually before the assay. […] 5 μM ATP (5 μl), 1 mM DTT (5 μl) and 0.1 mM tetra(LRRWSLG) peptide substrate (5 μl) were added into the reactions of test compounds and GST-tAurora A. The reactions were incubated at 37° C. for 90 min. 50 μl of Kinase-Glo Plus Reagent (V3771, Promega) was added into the reactions, followed by the incubation at 25° C. for 20 min.
A general note: Kinase-Glo reads ATP consumption through a luciferase reaction.

In the next assay the test system is HCT-116 cells. Briefly: HCT-116 cell viability, MTS assay. Type of assay: cell-based. Conditions: Homo sapiens, HCT-116, 96 h, 96-h incubation, MTS; read-out: IC50 values, HCT-116 cell viability. Here is the method:
HCT-116 cell viability was examined by the MTS assay (Promega, Madison, Wis., USA). 2000 HCT-116 cells in 100 μL McCoy's 5a medium were seeded in each well of a 96-well plate. After 96-h incubation with a test compound, the cells were incubated with 20 μL of a MTS/PMS mixture (MTS/PMS ratio: 20:1) for 2 h at 37° C. in a humidified incubator with 5% CO2 to allow viable cells to convert the tetrazolium salt (MTS) into formazan. The amount/concentration of formazan, which indicates the number of live cells, was determined by measuring the absorbance at 490 nm using a PerkinElmer Victor2 plate reader (PerkinElmer, Shelton, Conn., USA).
A general note: Tetrazolium dyes change colour on reduction, which living cells bring about.

Values joined by “and” are separate entries in the source; they are usually repeats but may differ in a detail not shown here. Equal values may be shown once.

Regarding `COc1cc2ncnc(NCCc3ccc(NC(=O)Nc4ccccc4CN(C)C)cc3)c2cc1OC` [Compound 3, 1-{4-[2-(6,7-Dimethoxy-quinazolin-4-ylamino)-ethyl]-phenyl}-3-(2-dimethylaminomethyl-phenyl)-urea], the “tumor size as % of that in the vehicle control group” value in assay [1] (25 mg/kg daily IV, days 1-5 and 8-12) amounted to 35%; in assay [1] (50 mg/kg daily IV, days 1-5), 36%. For the same compound, in assay [1] (dosages of 25 and 50 mg/kg IV, versus VX-680 at 50 mg/kg), the “tumor growth suppression (in words)” value is “suppressed tumor growth significantly and better than VX-680”. Besides, the IC50 was < 1000 nM and 51 to 450 nM at Aurora A; below 100 nM in the assay with HCT-116 cells.
